# Results from patent publication US8759334B2, “Compounds useful for the treatment of metabolic and inflammatory diseases” (Galapagos NV, priority 2011, dated 2014).
# Biological target: T1, GPR43 (Homo sapiens, UniProt O15552)
# T1 construct: expressed in transfected cells
# T1 sequence (O15552 1-330): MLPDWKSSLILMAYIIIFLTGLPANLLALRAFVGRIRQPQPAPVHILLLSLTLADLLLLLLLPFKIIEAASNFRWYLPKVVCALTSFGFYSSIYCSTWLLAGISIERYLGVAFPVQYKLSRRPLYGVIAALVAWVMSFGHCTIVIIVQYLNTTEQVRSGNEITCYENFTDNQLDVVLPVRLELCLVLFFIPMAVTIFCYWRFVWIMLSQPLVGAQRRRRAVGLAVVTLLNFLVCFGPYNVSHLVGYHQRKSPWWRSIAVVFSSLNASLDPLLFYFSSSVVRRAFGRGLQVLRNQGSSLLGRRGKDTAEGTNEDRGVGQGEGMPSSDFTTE
# Assay: Calcium mobilization assay with probenecid
# Format: cell-based
# Conditions: GPR43 stably expressing cells; triggered with sodium acetate at EC80; 2.5 mM probenecid; read-out: GPR43 assay with probenicid IC50
# How it was run: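 Cells stably expressing GPR43 plated overnight at 37 °C, then loaded 2 h with Calcium 4 dye plus 2.5 mM probenecid. […]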
row,IC50,SMILES
1,> 1000 nM,"Cc1cc(C)cc(CC(=O)N2CCC2(C)C(=O)N(CCS(=O)(=O)N2CCOCC2)Cc2ccc(Cl)cc2)c1 (stereo not drawn) [Compound 179, 1-[2-(3,5-Dimethyl-phenyl)-acetyl]-2-methyl-azetidine-2-carboxylic acid (4-chloro-benzyl)-[2-(morpholine-4-sulfonyl)-ethyl]-amide]"
2,501 to 1000 nM,"Cc1cc(C)cc(CC(=O)N2CCC2(C)C(=O)N(CCCS(=O)(=O)N2CCN(C)CC2)Cc2ccc(Cl)cc2)c1 (stereo not drawn) [Compound 180, 1-[2-(3,5-Dimethyl-phenyl)-acetyl]-2-methyl-azetidine-2-carboxylic acid (4-chloro-benzyl)-[3-(4-methyl-piperazine-1-sulfonyl)-propyl]-amide]"
3,101 to 500 nM,"CNS(=O)(=O)CCCN(Cc1ccc(Cl)cc1)C(=O)C1(C)CCN1C(=O)c1csc2ccccc12 (stereo not drawn) [Compound 186, 1-(Benzo[b]thiophene-3-carbonyl)-2-methyl-azetidine-2-carboxlic acid (4-chloro-benzyl)-(3-methylsulfamoyl-propyl)-amide]"
4,0.01 to 100 nM,"CNS(=O)(=O)CCCN(Cc1ccc(Cl)cc1)C(=O)C1(C)CCN1C(=O)Cc1csc2ccccc12 (stereo not drawn) [Compound 189, 1-(2-Benzo[b]thiophen-3-yl-acetyl)-2-methyl-azetidine-2-carboxylic acid (4-chloro-benzyl)-(3-methylsulfamoyl-propyl)-amide]"
5,0.01 to 100 nM,"Cc1cc(C)cc(OC(=O)N2CCC2(C)C(=O)N(CCCC(=O)O)Cc2ccc(Cl)cc2)c1 (stereo not drawn) [Compound 196, 2-[(3-Carboxy-propyl)-(4-chloro-benzyl)-carbamoyl]-2-methyl-azetidine-1-carboxylic acid 3,5-dimethyl-phenyl ester]"
6,101 to 500 nM,"O=C(O)CCCN(Cc1cccc(Cl)c1)C(=O)C1(Cc2ccccc2)CCN1C(=O)c1csc2ccccc12 (stereo not drawn) [Compound 199, 4-[[1-(Benzo[b]thiophene-3-carbonyl)-2-benzyl-azetidine-2-carbonyl]-(3-chloro-benzyl)-amino]-butyric acid]"
7,> 1000 nM,"Cc1cc(C)cc(NC(=O)N2CCC2(C)C(=O)N(CCCC(=O)O)Cc2ccc(Cl)cc2)c1 (stereo not drawn) [Compound 200, 4-{(4-chloro-benzyl)-[1-(3,5-dimethyl-phenylcarbamoyl)-2-methyl-azetidine-2-carbonyl]-amino}-butyric acid]"
8,> 1000 nM,"CC1(C(=O)N(CCCC(=O)O)Cc2ccc(Cl)cc2)CCN1C(=O)Oc1ccccc1Cl (stereo not drawn) [Compound 202, 2-[(3-Carboxy-propyl)-(4-chloro-benzyl)-carbamoyl]-2-methyl-azetidine-1-carboxylic acid 2-chloro-phenyl ester]"
9,0.01 to 100 nM,"CC(C)C1(C(=O)N(CCCC(=O)O)Cc2cccc(Cl)c2)CCN1C(=O)c1csc2ccccc12 (stereo not drawn) [Compound 203, 4-[[1-(Benzo[b]thiophene-3-carbonyl)-2-isopropyl-azetidine-2-carbonyl]-(3-chloro-benzyl)-amino]-butyric acid]"
10,> 1000 nM,"Cc1ccc(OC(=O)N2CCC2(C)C(=O)N(CCCC(=O)O)Cc2ccc(Cl)cc2)c(C)c1 (stereo not drawn) [Compound 213, 4-(N-(4-chlorobenzyl)-1-((2,4-dimethylphenoxy)carbonyl)-2-methylazetidine-2-carboxamido)butanoic acid]"

# The remaining lines, values behind:
row,SMILES,IC50
1,"CC1(C(=O)N(CCCC(=O)O)Cc2ccn3ccnc3c2)CCN1C(=O)Cc1csc2ccccc12 (stereo not drawn) [Compound 177, 4-{[1-(2-Benzo[b]thiophen-3-yl-acetyl)-2-methyl-azetidine-2-carbonyl]-imidazo[1,2-a]pyridin-7-ylmethyl-amino}-butyric acid]",> 1000 nM
2,"COc1ccc(CNS(=O)(=O)CCCN(Cc2ccc(Cl)cc2)C(=O)C2(C)CCN2C(=O)Cc2csc3ccccc23)c(OC)c1 (stereo not drawn) [Compound 178, 1-(2-Benzo[b]thiophen-3-yl-acetyl)-2-methyl-azetidine-2-carboxylic acid (4-chloro-benzyl)-[3-(2,4-dimethoxy-benzylsulfamoyl)-propyl]-amide]",> 1000 nM
3,"CC1(C(=O)N(CCCS(N)(=O)=O)Cc2ccc(Cl)cc2)CCN1C(=O)Cc1csc2ccccc12 (stereo not drawn) [Compound 181, 1-(2-Benzo[b]thiophen-3-yl-acetyl)-2-methyl-azetidine-2-carboxylic acid (4-chloro-benzyl)-(3-sulfamoyl-propyl)-amide]",0.01 to 100 nM
4,"CC1(C(=O)N(CCCC(=O)O)Cc2ccc3scnc3c2)CCN1C(=O)Cc1csc2ccccc12 (stereo not drawn) [Compound 183, 4-{[1-(2-Benzo[b]thiophen-3-yl-acetyl)-2-methyl-azetidine-2-carbonyl]-benzothiazol-5-ylmethyl-amino}-butyric acid]",0.01 to 100 nM
5,"CC1(C(=O)N(CCCC(=O)O)Cc2ccc3scnc3c2)CCN1C(=O)c1csc2ccccc12 (stereo not drawn) [Compound 184, 4-{[1-(Benzo[b]thiophene-3-carbonyl)-2-methyl-azetidine-2-carbonyl]-benzothiazol-5-ylmethyl-amino}-butyric acid]",101 to 500 nM
6,"Cc1cc(C)cc(CC(=O)N2CCC2(C)C(=O)N(CCCC(=O)O)Cc2ccc3scnc3c2)c1 (stereo not drawn) [Compound 185, 4-(Benzothiazol-5-ylmethyl-{1-[2-(3,5-dimethyl-phenyl)-acetyl]-2-methyl-azetidine-2-carbonyl}-amino)-butyric acid]",501 to 1000 nM
7,"CC1(C(=O)N(CCC(=O)O)Cc2ccc3cn[nH]c3c2)CCN1C(=O)c1csc2ccccc12 (stereo not drawn) [Compound 188, 3-[[1-(Benzo[b]thiophene-3-carbonyl)-2-methyl-azetidine-2-carbonyl]-(1H-indazol-6-ylmethyl)-amino]-propionic acid]",501 to 1000 nM
8,"CNS(=O)(=O)CCCN(Cc1cccc(Cl)c1)C(=O)C1(C)CCN1C(=O)c1csc2ccccc12 (stereo not drawn) [Compound 190, 1-(Benzo[b]thiophene-3-carbonyl)-2-methyl-azetidine-2-carboxylic acid (3-chloro-benzyl)-(3-methylsulfamoyl-propyl)-amide]",0.01 to 100 nM
9,"CC1(C(=O)N(CCS(N)(=O)=O)Cc2ccc(Cl)cc2)CCN1C(=O)c1csc2ccccc12 (stereo not drawn) [Compound 192, 1-(Benzo[b]thiophene-3-carbonyl)-2-methyl-azetidine-2-carboxylic acid (4-chloro-benzyl)-(2-sulfamoyl-ethyl)-amide]",0.01 to 100 nM
10,"CNS(=O)(=O)CCN(Cc1ccc(Cl)cc1)C(=O)C1(C)CCN1C(=O)c1csc2ccccc12 (stereo not drawn) [Compound 193, 1-(Benzo[b]thiophene-3-carbonyl)-2-methyl-azetidine-2-carboxylic acid (4-chloro-benzyl)-(2-methylsulfamoyl-ethyl)-amide]",101 to 500 nM
11,"C[C@H](c1ccc(Cl)cc1)N(CCCC(=O)O)C(=O)[C@@]1(C)CCN1C(=O)c1csc2ccccc12 [Compound 197, 4-{[(R)-1-(Benzo[b]thiophene-3-carbonyl)-2-methyl-azetidine-2-carbonyl]-[(R)-1-(4-chloro-phenyl)-ethyl]-amino}-butyric acid]",501 to 1000 nM
12,"Cc1cc(C)cc(N(C)C(=O)N2CCC2(C)C(=O)N(CCCC(=O)O)Cc2ccc(Cl)cc2)c1 (stereo not drawn) [Compound 201, 4-((4-Chloro-benzyl)-{1-[(3,5-dimethyl-phenyl)-methyl-carbamoyl]-2-methyl-azetidine-2-carbonyl}-amino)-butyric acid]",> 1000 nM
13,"CCCC1(C(=O)N(CCCC(=O)O)Cc2cccc(Cl)c2)CCN1C(=O)c1csc2ccccc12 (stereo not drawn) [Compound 204, 4-[[1-(Benzo[b]thiophene-3-carbonyl)-2-propyl-azetidine-2-carbonyl]-(3-chloro-benzyl)-amino]-butyric acid]",0.01 to 100 nM
14,"Cc1ccccc1OC(=O)N1CCC1(C)C(=O)N(CCCC(=O)O)Cc1ccc(Cl)cc1 (stereo not drawn) [Compound 205, 2-[(3-Carboxy-propyl)-(4-chloro-benzyl)-carbamoyl]-2-methyl-azetidine-1-carboxylic acid o-tolyl ester]",> 1000 nM
15,"CC1(C(=O)N(CCCS(N)(=O)=O)c2ccc(Cl)cc2)CCN1C(=O)c1csc2ccccc12 (stereo not drawn) [Compound 206, 1-(Benzo[b]thiophene-3-carbonyl)-2-methyl-azetidine-2-carboxylic acid (4-chloro-phenyl)-(3-sulfamoyl-propyl)-amide]",0.01 to 100 nM
16,"C[C@]1(C(=O)N(CCCC(=O)NS(C)(=O)=O)Cc2cccc(Cl)c2)CCN1C(=O)c1csc2ccccc12 [Compound 207, (R)-1-(benzo[b]thiophene-3-carbonyl)-N-(3-chlorobenzyl)-2-methyl-N-(4-(methylsulfonamido)-4-oxobutyl)azetidine-2-carboxamide]",0.01 to 100 nM
17,"CCC1(C(=O)N(CCCS(N)(=O)=O)Cc2cccc(Cl)c2)CCN1C(=O)c1csc2ccccc12 (stereo not drawn) [Compound 208, 1-(benzo[b]thiophene-3-carbonyl)-N-(3-chlorobenzyl)-2-ethyl-N-(3-sulfamoylpropyl)azetidine-2-carboxamide]",0.01 to 100 nM
18,"C[C@@H](c1ccc(Cl)cc1)N(CCCS(N)(=O)=O)C(=O)C1(C)CCN1C(=O)c1csc2ccccc12 (stereo partly drawn) [Compound 209, 1-(benzo[b]thiophene-3-carbonyl)-N-((S)-1-(4-chlorophenyl)ethyl)-2-methyl-N-(3-sulfamoylpropyl)azetidine-2-carboxamide]",101 to 500 nM
19,"CC1(C(=O)N(CCCC(=O)O)Cc2ccc(Cl)cc2)CCN1C(=O)Oc1ccccc1F (stereo not drawn) [Compound 210, 4-(N-(4-chlorobenzyl)-1-((2-fluorophenoxy)carbonyl)-2-methylazetidine-2-carboxamido)butanoic acid]",> 1000 nM
20,"CC1(C(=O)N(CCCC(=O)O)Cc2ccc(Cl)cc2)CCN1C(=O)Oc1csc2ccccc12 (stereo not drawn) [Compound 211, 4-(1-((benzo[b]thiophen-3-yloxy)carbonyl)-N-(4-chlorobenzyl)-2-methylazetidine-2-carboxamido)butanoic acid]",0.01 to 100 nM
